Source: ChEMBL document CHEMBL6078703, “Discovery of Novel Thiophene-Based Baloxavir Derivatives as Potent Cap-Dependent Endonuclease Inhibitors for Influenza Treatment” (J Med Chem, 2024)
pEC50: −log10 of the molar value. The source made the active and inactive calls. No cut-off for these calls is given here.

What was measured:
[1] = Metabolic stability in mouse liver microsomes assessed as intrinsic clearance measured up to 60 mins by LC-MS/MS analysis; type: ADME, Microsome; details: read-out: CLH
[2] = test system: Mus musculus; assay: In vivo inhibition of […] (PA) mRNA expression in H1N1 influenza virus infected in BALB/c mouse at 20 to 40 mg/kg single oral dose by qRT-PCR analysis; type: functional, organism-based; details: dose 20-40 mg/kg
[3] = Half life in CD-1 mouse at 1 mg/kg, iv measured up to 24 hrs by LC-MS/MS analysis; type: ADME, organism-based; details: in vivo
[4] = Cytotoxicity against human 786O cells assessed as cell viability measured after 48 hrs by CCK-8 assay; type: toxicity, cell-based, 786-0
[5] = Half life in CD-1 mouse at 15 mg/kg, po measured up to 24 hrs by LC-MS/MS analysis; type: ADME, organism-based; details: in vivo
[6] = test system: Influenza A virus; assay: Antiviral activity against influenza virus clinical strain H3N2 (A/Guangdong/2/2023) infected in MDCK cells assessed as reduction of virus-induced cytopathic effect measured after 2 days incubation; type: functional, organism-based; details: 48 h
[7] = Metabolic stability in human liver microsomes assessed as intrinsic clearance measured up to 60 mins by LC-MS/MS analysis; type: ADME, Microsome; details: read-out: CLH
[8] = Metabolic stability in mouse liver microsomes assessed as half life measured up to 60 mins by LC-MS/MS analysis; type: ADME, Microsome
[9] = test system: Mus musculus; assay: In vivo inhibition of polymerase acid protein (PA) mRNA expression in H1N1 influenza virus infected in BALB/c mouse at 20 to 40 mg/kg single oral dose by qRT-PCR analysis; type: functional, organism-based; details: dose 20-40 mg/kg
[10] = Oral bioavailability in CD-1 mouse at 15 mg/kg measured up to 24 hrs by LC-MS/MS analysis; type: ADME, organism-based; details: in vivo
[11] = Cmax in CD-1 mouse at 15 mg/kg, po measured up to 24 hrs by LC-MS/MS analysis; type: ADME, organism-based; details: in vivo
[12] = MRT (0 to infinity) in CD-1 mouse at 1 mg/kg, iv measured up to 24 hrs by LC-MS/MS analysis; type: ADME, organism-based; details: in vivo
[13] = Tmax in CD-1 mouse at 15 mg/kg, po measured up to 24 hrs by LC-MS/MS analysis; type: ADME, organism-based; details: in vivo
[14] = AUC (0 to infinity) in CD-1 mouse at 15 mg/kg, po measured up to 24 hrs by LC-MS/MS analysis; type: ADME, organism-based; details: in vivo
[15] = test system: Mus musculus; assay: In vivo inhibition of […] (PA) protein expression in H1N1 influenza virus infected in BALB/c mouse at 20 to 40 mg/kg single oral dose by Western blot analysis; type: functional, organism-based; details: dose 20-40 mg/kg
[16] = Cmax in CD-1 mouse at 1 mg/kg, iv measured up to 24 hrs by LC-MS/MS analysis; type: ADME, organism-based; details: in vivo
[17] = test system: Mus musculus; assay: In vivo inhibition of polymerase acid protein (PA) protein expression in H1N1 influenza virus infected in BALB/c mouse at 20 to 40 mg/kg single oral dose by Western blot analysis; type: functional, organism-based; details: dose 20-40 mg/kg
[18] = MRT (0 to infinity) in CD-1 mouse at 15 mg/kg, po measured up to 24 hrs by LC-MS/MS analysis; type: ADME, organism-based; details: in vivo
[19] = Selectivity index, ratio of CC50 for dog MDCK cells to EC50 for antiviral activity against influenza strain A/Aichi/ 2/1968 (H3N2) infected in MDCK cells; type: toxicity, cell-based; details: read-out: Selectivity Index
[20] = Metabolic stability in human liver microsomes assessed as half life measured up to 60 mins by LC-MS/MS analysis; type: ADME, Microsome
[21] = AUC (0 to infinity) in CD-1 mouse at 1 mg/kg, iv measured up to 24 hrs by LC-MS/MS analysis; type: ADME, organism-based; details: in vivo
[22] = Selectivity index, ratio of CC50 for dog MDCK cells to EC50 for antiviral activity against influenza strain A/WSN/1933 (H1N1) infected in MDCK cells; type: toxicity, cell-based; details: read-out: Selectivity Index
[23] = Tmax in CD-1 mouse at 1 mg/kg, iv measured up to 24 hrs by LC-MS/MS analysis; type: ADME, organism-based; details: in vivo
[24] = Cytotoxicity against human HepG2 cells assessed as cell viability measured after 48 hrs by CCK-8 assay; type: toxicity, cell-based
[25] = test system: HEK293T; assay: Inhibition of H1N1 influenza virus RdRp extracted for human 293T cells assessed as luminescence signal after 24 hrs incubation by Firefly/Renilla luciferase assay; type: cell-based; details: Influenza A virus, dose 0.625-12.5 nM
[26] = Cytotoxicity against human Hep3B cells assessed as cell viability measured after 48 hrs by CCK-8 assay; type: toxicity, cell-based, Hep 3B2
[27] = Cytotoxicity against dog MDCK cells assessed as cell viability measured after 48 hrs by CCK-8 assay; type: toxicity, cell-based, Canis lupus familiaris
[28] = test system: Influenza A virus; assay: Antiviral activity against influenza strain A/WSN/1933 (H1N1) infected in MDCK cells assessed as reduction of virus-induced cytopathic effect measured after 2 days incubation; type: functional, organism-based; details: 48 h
[29] = Cytotoxicity against human Huh-7 cells assessed as cell viability measured after 48 hrs by CCK-8 assay; type: toxicity, cell-based
[30] = test system: Influenza A virus; assay: Antiviral activity against influenza strain A/Aichi/ 2/1968 (H3N2) infected in MDCK cells assessed as reduction of virus-induced cytopathic effect measured after 2 days incubation; type: functional, organism-based; details: 48 h
[31] = test system: Influenza A virus; assay: In vivo antiviral activity against influenza strain A/WSN/1933 (H1N1) infected in BALB/c mouse assessed as increase in mouse survival at 10 to 40 mg/kg, IG treated 12 hrs after infection measured on 9 dpi; type: functional, organism-based; details: dose 10-40 mg/kg, time 9.0 day
[32] = test system: Influenza A virus; assay: In vivo antiviral activity against influenza strain A/WSN/1933 (H1N1) infected in BALB/c mouse assessed as weight regaining at 10 to 40 mg/kg, IG treated 12 hrs after infection measured on 9 dpi; type: functional, organism-based; details: dose 10-40 mg/kg, time 9.0 day
[33] = test system: Influenza A virus; assay: In vivo antiviral activity against influenza strain A/WSN/1933 (H1N1) infected in BALB/c mouse assessed as improvement in septal thickening in lungs at 20 to 40 mg/kg, IG treated 12 hrs after infection measured on 9 dpi by histopathological analysis; type: functional, organism-based; details: dose 20-40 mg/kg, time 9.0 day
[34] = test system: Influenza A virus; assay: In vivo antiviral activity against influenza strain A/WSN/1933 (H1N1) infected in BALB/c mouse assessed as improvement in alveolar collapse in lungs at 20 to 40 mg/kg, IG treated 12 hrs after infection measured on 9 dpi by histopathological analysis; type: functional, organism-based; details: dose 20-40 mg/kg, time 9.0 day
[35] = test system: Influenza A virus; assay: In vivo antiviral activity against influenza strain A/WSN/1933 (H1N1) infected in BALB/c mouse assessed as improvement in septal thickening in lungs at 10 to 20 mg/kg, IG treated 12 hrs after infection measured on 9 dpi by histopathological analysis; type: functional, organism-based; details: dose 10-20 mg/kg, time 9.0 day
[36] = test system: Influenza A virus; assay: In vivo antiviral activity against influenza strain A/WSN/1933 (H1N1) infected in BALB/c mouse assessed as inhibition of virus-induced inflammatory cytokine TNF-alpha level at 10 to 40 mg/kg, IG treated 12 hrs after infection measured on 9 dpi; type: functional, organism-based; details: dose 10-40 mg/kg, time 9.0 day
[37] = test system: Influenza A virus; assay: In vivo antiviral activity against influenza strain A/WSN/1933 (H1N1) infected in BALB/c mouse assessed as reduction in overall inflammation in lungs at 10 to 20 mg/kg, IG treated 12 hrs after infection measured on 9 dpi by histopathological analysis; type: functional, organism-based; details: dose 10-20 mg/kg, time 9.0 day
[38] = test system: Influenza A virus; assay: In vivo antiviral activity against influenza strain A/WSN/1933 (H1N1) infected in BALB/c mouse assessed as improvement in alveolar collapse in lungs at 10 to 20 mg/kg, IG treated 12 hrs after infection measured on 9 dpi by histopathological analysis; type: functional, organism-based; details: dose 10-20 mg/kg, time 9.0 day
[39] = Acute toxicity in CD-1 mouse assessed as abnormal lesions in lungs at 2000 mg/kg, po single dose measured for 2 weeks by macroscopic examination; type: organism-based; details: in vivo, 336 h
[40] = test system: Influenza A virus; assay: In vivo antiviral activity against influenza strain A/WSN/1933 (H1N1) infected in BALB/c mouse assessed as inhibition of virus-induced inflammatory cytokine IL-6 level at 10 to 40 mg/kg, IG treated 12 hrs after infection measured on 9 dpi; type: functional, organism-based; details: dose 10-40 mg/kg, time 9.0 day
[41] = Acute toxicity in CD-1 mouse assessed as abnormal lesions in kidney at 2000 mg/kg, po single dose measured for 2 weeks by macroscopic examination; type: organism-based; details: in vivo, 336 h
[42] = test system: Influenza A virus; assay: In vivo antiviral activity against influenza strain A/WSN/1933 (H1N1) infected in BALB/c mouse assessed as inhibition of virus-induced inflammatory cytokine IL-1beta level at 10 to 40 mg/kg, IG treated 12 hrs after infection measured on 9 dpi; type: functional, organism-based; details: dose 10-40 mg/kg, time 9.0 day
[43] = Acute toxicity in CD-1 mouse assessed as clinical signs of toxicity at 2000 mg/kg, po single dose measured for 2 weeks; type: organism-based; details: in vivo, 336 h
[44] = Acute toxicity in CD-1 mouse assessed as abnormal lesions in spleen at 2000 mg/kg, po single dose measured for 2 weeks by macroscopic examination; type: organism-based; details: in vivo, 336 h
[45] = test system: Influenza A virus; assay: In vivo antiviral activity against influenza strain A/WSN/1933 (H1N1) infected in BALB/c mouse assessed as inhibition of virus-induced inflammatory cytokine IFNgamma level at 10 to 40 mg/kg, IG treated 12 hrs after infection measured on 9 dpi; type: functional, organism-based; details: dose 10-40 mg/kg, time 9.0 day
[46] = Acute toxicity in CD-1 mouse assessed as abnormal lesions in intestine at 2000 mg/kg, po single dose measured for 2 weeks by macroscopic examination; type: organism-based; details: in vivo, 336 h
[47] = Acute toxicity in CD-1 mouse assessed as mouse survival at 2000 mg/kg, po single dose measured for 2 weeks; type: organism-based; details: in vivo, 336 h

O=C1c2c(O)c(=O)ccn2N([C@@H](c2ccc(F)c(F)c2)c2cccs2)[C@@H]2COCCN12
CLint scaled [1]: 2.38 mL/min/kg
inhibition [2]: Active
half-life [3]: 3.43 h
CC50 at 48 h [4]: 13.8 µM
half-life [5]: 4.3 h
pEC50 [6]: 8.60
CLint scaled [7]: 1.62 mL/min/kg
half-life [8]: 38.5 h
inhibition [9]: Active
bioavailability ([10]; CD-1, mouse): 71.6%
Cmax [11]: 4070 ng/mL
MRT inf [12]: 2.98 h
Tmax [13]: 0.42 h
AUC(0-inf) ([14]; CD-1, mouse): 11100 ng·h/mL
inhibition [15]: Active
Cmax [16]: 940 ng/mL
inhibition [17]: Active
MRT inf [18]: 2.77 h
selectivity ratio [19]: 7180
half-life [20]: 12.8 h
AUC(0-inf) ([21]; CD-1, mouse): 1230 ng·h/mL
selectivity ratio [22]: 18200
Tmax [23]: 4.8 min
CC50 at 48 h [24]: > 50 µM
Activity [25]: Dose-dependent-effect
CC50 at 48 h [26]: 46.3 µM
CC50 at 48 h [27]: 34.2 µM
pEC50 [28]: 8.73
CC50 at 48 h [29]: 41.6 µM
pEC50 [30]: 8.32

O=C1c2c(O)c(=O)ccn2N([C@@H]2c3ccccc3SCc3c2ccc(F)c3F)[C@@H]2COCCN12 [BALOXAVIR]
CC50 at 48 h [4]: 2.86 µM
pEC50 [6]: 8.76
F ([10]; mouse, po, 15 mg/kg, 24 h): 27.2%
Activity [31]: Active
AUC ([14]; mouse, po, 15 mg/kg, 24 h): 2877 ng·h/mL
Activity [32]: Active; Surviving Animals Gradually Starting Weight Weight Beginning 9 Dpi
Activity [33]: Active
selectivity ratio [19]: 2440
AUC ([21]; mouse, iv, 1 mg/kg, 24 h): 239 ng·h/mL
selectivity ratio [22]: 5290
Activity [34]: Active
CC50 at 48 h [24]: 19.1 µM
CC50 at 48 h [26]: 7.38 µM
pEC50 [28]: 8.75
CC50 at 48 h [29]: 9.34 µM
pEC50 [30]: 8.42

COC(=O)OCOc1c2n(ccc1=O)N([C@@H](c1ccc(F)c(F)c1)c1cccs1)[C@@H]1COCCN1C2=O
CC50 at 48 h [4]: 29.9 µM
Activity [35]: inactive
Activity [36]: Active
Activity [37]: Active
Activity [31]: Active
Activity [32]: Active; Surviving Animals Gradually Starting Weight Weight Beginning 9 Dpi
Activity [33]: Active
Activity [38]: inactive
Activity [39]: Non-toxic
Activity [34]: Active
Activity [40]: Active
Activity [41]: Non-toxic
CC50 at 48 h [24]: > 50 µM
Activity [42]: Active
CC50 at 48 h [26]: > 50 µM
Activity [43]: Non-toxic
Activity [44]: Non-toxic
CC50 at 48 h [29]: 60.1 µM
Activity [45]: Active
Activity [46]: Non-toxic
Activity [47]: Non-toxic
